According to patent publication US20160264570A1, “METHOD OF BLOCKING TRANSMISSION OF MALARIAL PARASITE” (THE UNITED STATES OF AMERICA, AS REPRESENTED BY THE …, priority 2013, published 2016):
Like-named read-outs stand apart in the source and are kept apart here.

What was measured:
[1] = test system: Asexual parasites of P. falciparum strain 3D7; assay: SYBR Green viability assay on asexual parasites; format: cell-based, Plasmodium falciparum; conditions: read-out: Activity against asexual parasites EC50
[2] = test system: P. falciparum strain 3D7 gametocytes; assay: alamarBlue gametocyte viability assay, strain 3D7
[3] = read-out: Gametocytocidal activity EC50, Table 6

Row | SMILES | EC50 ([1]; Table 6) [nM] | EC50 [2, 3] [nM] | EC50 ([1]; Plasmodium falciparum, 3D7, Table 8) [nM] | EC50 ([2]; Plasmodium falciparum, 3D7, read-out: Gametocytocidal activity EC50, Table 8) [nM]
1 | O=c1ccc2cnc3ccc(-c4ccccc4)cc3c2n1-c1cccc(C(F)(F)F)c1 | 113 | 627 | – | –
2 | O=c1ccc2cnc3ccc(-c4cccnc4)cc3c2n1-c1cccc(C(F)(F)F)c1 | 110 | 535 | – | –
3 | O=c1ccc2cnc3ccc(-c4cncnc4)cc3c2n1-c1cccc(C(F)(F)F)c1 | 475 | 942 | – | –
4 | CCn1c(=O)ccc2cnc3ccc(-c4ccc(N)nc4)cc3c21 | 1270 | 1650 | – | –
5 | CC(=O)Nc1ccc(-c2ccc3ncc4ccc(=O)n(-c5cccc(C(F)(F)F)c5)c4c3c2)cn1 | 106 | 114 | – | –
6 | Cc1nc(N)ncc1-c1ccc2ncc3ccc(=O)n(-c4cccc(C(F)(F)F)c4)c3c2c1 | 1150 | 2260 | – | –
7 | O=c1ccc2cnc3ccc(-c4ccc5[nH]ccc5c4)cc3c2n1-c1cccc(C(F)(F)F)c1 | 191 | 325 | – | –
8 | O=c1ccc2cnc3ccc(-c4ccc5[nH]ncc5c4)cc3c2n1-c1cccc(C(F)(F)F)c1 | 64 | 74 | – | –
9 | Nc1ccc(-c2ccc3ncc4ccc(=O)n(-c5cccc(C(F)(F)F)c5)c4c3c2)cc1 | 99 | 147 | – | –
10 | O=c1ccc2cnc3ccc(-c4cn[nH]c4)cc3c2n1-c1cccc(C(F)(F)F)c1 | 131 | 246 | – | –
11 | O=c1ccc2cnc3ccc(-c4ccc5[nH]cnc5c4)cc3c2n1-c1cccc(C(F)(F)F)c1 | 37 | 96 | – | –
12 | Cc1ccc(C(F)(F)F)cc1-n1c(=O)ccc2cnc3ccc(-c4ccc(N)nc4)cc3c21 | 44 | 65 | – | –
13 | Cc1cccc(-n2c(=O)ccc3cnc4ccc(-c5ccc(N)nc5)cc4c32)c1 | 23 | 19 | – | –
14 | Nc1ccc(-c2ccc3ncc4ccc(=O)n(-c5cccc(Cl)c5)c4c3c2)cn1 | 10 | 18 | – | –
15 | N#Cc1cccc(-n2c(=O)ccc3cnc4ccc(-c5ccc(N)nc5)cc4c32)c1 | 12 | 23 | – | –
16 | COc1cccc(-n2c(=O)ccc3cnc4ccc(-c5ccc(N)nc5)cc4c32)c1 | 95 | 137 | – | –
17 | Nc1ccc(-c2ccc3ncc4ccc(=O)n(-c5cccc(S(N)(=O)=O)c5)c4c3c2)cn1 | 82 | 295 | – | –
18 | Nc1ccc(-c2ccc3ncc4ccc(=O)n(-c5ccc(N6CCNCC6)c(C(F)(F)F)c5)c4c3c2)cn1 | 9 | 10 | – | –
19 | O=c1ccc2cnc3ccc(-c4cnc5ccccc5c4)cc3c2n1-c1cccc(C(F)(F)F)c1 | 1180 | 2270 | – | –
20 | Nc1ccc(-c2ccc3ncc4ccc(=O)n(CC5CCNCC5)c4c3c2)cn1 | 6440 | 11500 | – | –
21 | Nc1ccc(-c2ccc3ncc4ccc(=O)n(-c5ccccc5)c4c3c2)cn1 | 33 | 47 | – | –

Row | SMILES | EC50 ([1]; Table 6) [nM] | EC50 [2, 3] [nM] | EC50 ([1]; Plasmodium falciparum, 3D7, Table 8) [nM] | EC50 ([2]; Plasmodium falciparum, 3D7, read-out: Gametocytocidal activity EC50, Table 8) [nM]
22 | O=c1ccc2cnc3ccc(N4CCNCC4)cc3c2n1-c1cccc(C(F)(F)F)c1 | > 20000 | 22000 | – | –
23 | O=c1ccc2cnc3ccc(C4=CCNCC4)cc3c2n1-c1cccc(C(F)(F)F)c1 | 15700 | 18400 | – | –
24 | CN(C)C(=O)c1cccc(-n2c(=O)ccc3cnc4ccc(-c5ccc(N)nc5)cc4c32)c1 | 859 | 1520 | – | –
25 | Nc1ccc(-c2ccc3ncc4ccc(=O)n(-c5cccc(Oc6ccccc6)c5)c4c3c2)cn1 | 1670 | 2430 | – | –
26 | CCOc1cccc(-n2c(=O)ccc3cnc4ccc(-c5ccc(N)nc5)cc4c32)c1 | 683 | 912 | – | –
27 | CN(C)c1ncc(-c2ccc3ncc4ccc(=O)n(-c5cccc(C(F)(F)F)c5)c4c3c2)cn1 | 1950 | 3130 | – | –
28 | Nc1ccc(-c2ccc3ncc4ccc(=O)n(C5CCNCC5)c4c3c2)cn1 | 2370 | 2800 | – | –
29 | Nc1ccc(-c2ccc3ncc4ccc(=O)n(C5CC5)c4c3c2)cn1 | 560 | 215 | – | –
30 | O=c1ccc2cnc3ccc(-c4ccc(-c5nnn[nH]5)cc4)cc3c2n1-c1cccc(C(F)(F)F)c1 | > 20000 | 20900 | – | –
31 | O=c1ccc2cnc3ccc(-c4ccc(Cl)cc4)cc3c2n1-c1cccc(C(F)(F)F)c1 | 253 | 673 | – | –
32 | COc1ccc(-c2ccc3ncc4ccc(=O)n(-c5cccc(C(F)(F)F)c5)c4c3c2)cc1 | 2460 | 3240 | – | –
33 | CC(=O)c1cccc(-c2ccc3ncc4ccc(=O)n(-c5cccc(C(F)(F)F)c5)c4c3c2)c1 | 352 | 1240 | – | –
34 | O=c1ccc2cnc3ccc(-c4ccc5c(c4)OCC5)cc3c2n1-c1cccc(C(F)(F)F)c1 | 2240 | 3310 | – | –
35 | Cn1ccc2cc(-c3ccc4ncc5ccc(=O)n(-c6cccc(C(F)(F)F)c6)c5c4c3)ccc21 | 2090 | 3260 | – | –
36 | O=c1ccc2cnc3ccc(-c4ccc5c(c4)OCO5)cc3c2n1-c1cccc(C(F)(F)F)c1 | 802 | 3130 | – | –
37 | O=c1ccc2cnc3ccc(-c4ccc(F)cc4)cc3c2n1-c1cccc(C(F)(F)F)c1 | 580 | 2660 | – | –
38 | O=c1ccc2cnc3ccc(-c4ccc(O)cc4)cc3c2n1-c1cccc(C(F)(F)F)c1 | 129 | 165 | – | –
39 | O=c1ccc2cnc3ccc(-c4ccc5sccc5c4)cc3c2n1-c1cccc(C(F)(F)F)c1 | 1640 | 3210 | – | –
40 | CS(=O)(=O)c1ccc(-c2ccc3ncc4ccc(=O)n(-c5cccc(C(F)(F)F)c5)c4c3c2)cc1 | 266 | 491 | – | –
41 | O=c1ccc2cnc3ccc(-c4ccc5nonc5c4)cc3c2n1-c1cccc(C(F)(F)F)c1 | 1720 | 4520 | – | –
42 | O=c1ccc2cnc3ccc(-c4ccc(N5CCCCC5)nc4)cc3c2n1-c1cccc(C(F)(F)F)c1 | 4900 | 8090 | – | –

Row | SMILES | EC50 ([1]; Table 6) [nM] | EC50 [2, 3] [nM] | EC50 ([1]; Plasmodium falciparum, 3D7, Table 8) [nM] | EC50 ([2]; Plasmodium falciparum, 3D7, read-out: Gametocytocidal activity EC50, Table 8) [nM]
43 | Cc1ccc(-c2ccc3ncc4ccc(=O)n(-c5cccc(C(F)(F)F)c5)c4c3c2)cn1 | 33 | 65 | – | –
44 | NS(=O)(=O)c1ccc(-c2ccc3ncc4ccc(=O)n(-c5cccc(C(F)(F)F)c5)c4c3c2)cc1 | 384 | 303 | – | –
45 | CN(C)C(=O)c1ccc(-c2ccc3ncc4ccc(=O)n(-c5cccc(C(F)(F)F)c5)c4c3c2)cc1 | 2080 | 1990 | – | –
46 | O=c1ccc2cnc3ccc(-c4ccc(-c5ccccc5)cc4)cc3c2n1-c1cccc(C(F)(F)F)c1 | 15000 | 19300 | – | –
47 | Cc1ccc(-c2ccc3ncc4ccc(=O)n(-c5cccc(C(F)(F)F)c5)c4c3c2)cc1 | 372 | 794 | – | –
48 | O=c1ccc2cnc3ccc(-c4cncc(Cl)c4)cc3c2n1-c1cccc(C(F)(F)F)c1 | 3590 | 8800 | – | –
49 | O=c1ccc2cnc3ccc(-c4cccc(N5CCCC5)c4)cc3c2n1-c1cccc(C(F)(F)F)c1 | 13300 | 16100 | – | –
50 | O=C(c1ccc(-c2ccc3ncc4ccc(=O)n(-c5cccc(C(F)(F)F)c5)c4c3c2)cc1)N1CCNCC1 | 7870 | 5570 | – | –
51 | O=C(c1ccc(-c2ccc3ncc4ccc(=O)n(-c5cccc(C(F)(F)F)c5)c4c3c2)cc1)N1CCOCC1 | 12000 | 22400 | – | –
52 | O=c1ccc2cnc3ccc(-c4ccc(O)nc4)cc3c2n1-c1cccc(C(F)(F)F)c1 | 187 | 262 | – | –
53 | NS(=O)(=O)c1cccc(-c2ccc3ncc4ccc(=O)n(-c5cccc(C(F)(F)F)c5)c4c3c2)c1 | 128 | 342 | – | –
54 | O=C1NCCc2cc(-c3ccc4ncc5ccc(=O)n(-c6cccc(C(F)(F)F)c6)c5c4c3)ccc21 | 1130 | 3170 | – | –
55 | O=C1CCc2cc(-c3ccc4ncc5ccc(=O)n(-c6cccc(C(F)(F)F)c6)c5c4c3)ccc2N1 | 1130 | 3170 | – | –
56 | NCc1ccc2ncc3ccc(=O)n(-c4cccc(C(F)(F)F)c4)c3c2c1 | 163 | 281 | – | –
57 | CN(C)Cc1ccc2ncc3ccc(=O)n(-c4cccc(C(F)(F)F)c4)c3c2c1 | 242 | 666 | – | –
58 | CNC(=O)c1ccc(-c2ccc3ncc4ccc(=O)n(-c5cccc(C(F)(F)F)c5)c4c3c2)cc1 | 17 | 61 | – | –
59 | O=C1Cc2cc(-c3ccc4ncc5ccc(=O)n(-c6cccc(C(F)(F)F)c6)c5c4c3)ccc2N1 | 19 | 51 | – | –
60 | O=C1NCc2cc(-c3ccc4ncc5ccc(=O)n(-c6cccc(C(F)(F)F)c6)c5c4c3)ccc21 | 517 | 1790 | – | –
61 | CCc1cc2cnc3ccc(-c4ccc(N)nc4)cc3c2n(-c2cccc(C(F)(F)F)c2)c1=O | – | – | 260 | 136
